Residues, ends and D or L forms follow the SMILES beside them. *: point of attachment. Cbz = O=C(OCc1ccccc1)*

The experiment concerns the target T1, microbial transglutaminase (MTG) (Streptomyces mobaraensis, UniProt P81453).
T1 sequence (P81453 77-407): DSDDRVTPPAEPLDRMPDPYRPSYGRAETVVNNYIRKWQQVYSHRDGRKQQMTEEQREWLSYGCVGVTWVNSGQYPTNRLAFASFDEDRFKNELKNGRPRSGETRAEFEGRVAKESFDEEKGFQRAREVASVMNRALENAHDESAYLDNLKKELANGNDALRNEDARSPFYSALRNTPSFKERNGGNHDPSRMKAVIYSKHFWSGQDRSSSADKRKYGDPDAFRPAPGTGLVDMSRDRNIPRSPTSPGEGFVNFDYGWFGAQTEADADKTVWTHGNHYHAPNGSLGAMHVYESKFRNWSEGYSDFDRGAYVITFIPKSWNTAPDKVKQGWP
The experiment is described as follows: colorimetric hydroxamate assay, absorbance at […] nm. The format is biochemical. The following applies: 37 °C, 10 min; hydroxamate formation.

`NC(=O)CC[C@H](NC(=O)OCc1ccccc1)C(=O)NCC(=O)O` [Z-QG, N-carbobenzoxy-L-glutaminylglycine] (Cbz-Gln-Gly-OH): the specific activity result is “specific MTG activity was measured with a colorimetric hydroxamate procedure using N-carbobenzoxy-L-glutaminylglycine (Z-QG)”.

The values are drawn from PMC11445358 (Applied Microbiology and Biotechnology, 2024).
